Laboratory results: ChEMBL document CHEMBL1806399, “Synthesis and SAR of new pyrazolo[4,3-h]quinazoline-3-carboxamide derivatives as potent and selective MPS1 kinase inhibitors” (Bioorg Med Chem Lett, 2011)
Converted amounts (≈) assume the structure as drawn.

Target: T1, Dual specificity protein kinase TTK (Homo sapiens, UniProt P33981)
T1 sequence (P33981 whole entry): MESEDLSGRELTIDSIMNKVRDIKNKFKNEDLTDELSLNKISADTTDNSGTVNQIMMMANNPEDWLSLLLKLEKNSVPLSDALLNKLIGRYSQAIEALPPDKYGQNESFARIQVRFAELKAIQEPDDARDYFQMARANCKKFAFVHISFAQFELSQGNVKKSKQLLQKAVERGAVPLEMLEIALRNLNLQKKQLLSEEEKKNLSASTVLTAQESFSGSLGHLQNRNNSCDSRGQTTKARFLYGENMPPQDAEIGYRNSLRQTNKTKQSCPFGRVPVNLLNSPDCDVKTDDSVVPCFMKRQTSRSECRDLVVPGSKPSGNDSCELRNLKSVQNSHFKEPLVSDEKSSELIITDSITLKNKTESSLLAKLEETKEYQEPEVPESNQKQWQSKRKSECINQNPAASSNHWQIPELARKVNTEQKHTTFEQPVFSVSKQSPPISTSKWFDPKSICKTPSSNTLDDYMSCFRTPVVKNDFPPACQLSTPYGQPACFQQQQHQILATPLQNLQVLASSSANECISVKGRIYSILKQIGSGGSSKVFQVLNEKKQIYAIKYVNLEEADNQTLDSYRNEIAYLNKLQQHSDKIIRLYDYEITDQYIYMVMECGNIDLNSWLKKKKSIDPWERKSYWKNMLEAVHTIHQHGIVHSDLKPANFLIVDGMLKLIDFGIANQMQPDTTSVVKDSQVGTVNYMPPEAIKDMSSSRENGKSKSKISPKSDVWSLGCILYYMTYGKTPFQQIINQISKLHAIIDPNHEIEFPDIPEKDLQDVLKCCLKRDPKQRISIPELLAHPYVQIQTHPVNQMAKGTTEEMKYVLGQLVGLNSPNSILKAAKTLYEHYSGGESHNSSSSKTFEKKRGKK
Test: Inhibition of MPS1 assessed as [33P]-gamma-ATP incorporation into substrate P38-betatide by gamma counting
Settings: not given

Row | Compound | IC50 [nM]
1 | Cn1nc(C(=O)NCCc2ccccc2)c2c1-c1nc(Nc3ccccc3)ncc1CC2 | > 12000
2 | CCc1cccc(CC)c1NC(=O)c1nn(C)c2c1CCc1cnc(Nc3ccc(C(=O)N4CCC[C@@H]4CN4CCCC4)cc3OC(F)(F)F)nc1-2 | 391
3 | Cn1nc(C(=O)NCc2ccccc2)c2c1-c1nc(Nc3ccccc3)ncc1CC2 | > 11000
4 | CCc1cccc(CC)c1NC(=O)c1nn(C)c2c1CCc1cnc(Nc3ccc(C(N)=O)cc3OC(F)(F)F)nc1-2 | 140
5 | CCc1cccc(CC)c1NC(=O)c1nn(C)c2c1CCc1cnc(Nc3ccccc3)nc1-2 | 530
6 | CCc1cccc(CC)c1NC(=O)c1nn(C)c2c1CCc1cnc(Nc3ccccc3OC)nc1-2 | 525
7 | Cn1nc(C(N)=O)c2c1-c1nc(Nc3ccccc3OC(F)(F)F)ncc1CC2 | 1220

These reach a lower IC50. Values come first.

Row | IC50 [nM] | Compound
8 | 84 | CCc1cccc(CC)c1NC(=O)c1nn(C)c2c1CCc1cnc(Nc3ccc(C(=O)NC4CCN(C)CC4)cc3OC)nc1-2
9 | 36 | CCc1cccc(CC)c1NC(=O)c1nn(C)c2c1CCc1cnc(Nc3ccc(C(N)=O)cc3OC)nc1-2
10 | 33 | CCc1cccc(CC)c1NC(=O)c1nn(C)c2c1CCc1cnc(Nc3ccc(C(=O)NCCN(C)C)cc3OC)nc1-2
11 | 21 | CCc1cccc(CC)c1NC(=O)c1nn(C)c2c1CCc1cnc(Nc3ccc(C(=O)N4CCCN(C)CC4)cc3OC)nc1-2

Target: T2, Aurora kinase A (Homo sapiens, UniProt O14965)
T2 sequence (O14965 whole entry): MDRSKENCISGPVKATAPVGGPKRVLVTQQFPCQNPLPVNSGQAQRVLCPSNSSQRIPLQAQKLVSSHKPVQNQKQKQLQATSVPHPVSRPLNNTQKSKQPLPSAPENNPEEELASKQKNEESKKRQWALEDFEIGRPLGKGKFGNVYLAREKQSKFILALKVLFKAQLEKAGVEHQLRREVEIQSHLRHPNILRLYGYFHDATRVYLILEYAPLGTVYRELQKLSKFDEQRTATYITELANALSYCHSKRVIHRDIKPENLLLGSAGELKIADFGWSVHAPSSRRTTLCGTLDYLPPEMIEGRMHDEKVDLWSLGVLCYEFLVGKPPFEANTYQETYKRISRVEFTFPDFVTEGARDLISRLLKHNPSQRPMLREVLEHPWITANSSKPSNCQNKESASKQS
Test: Inhibition of Aur-A assessed as [33P]-gamma-ATP incorporation into substrate by gamma counting
Settings: not given

Row | Compound | IC50 [nM]
12 | Cn1nc(C(=O)NCCc2ccccc2)c2c1-c1nc(Nc3ccccc3)ncc1CC2 | 677
13 | CCc1cccc(CC)c1NC(=O)c1nn(C)c2c1CCc1cnc(Nc3ccc(C(=O)N4CCC[C@@H]4CN4CCCC4)cc3OC(F)(F)F)nc1-2 | > 10000
14 | CCc1cccc(CC)c1NC(=O)c1nn(C)c2c1CCc1cnc(Nc3ccc(C(N)=O)cc3OC(F)(F)F)nc1-2 | > 10000
15 | CCc1cccc(CC)c1NC(=O)c1nn(C)c2c1CCc1cnc(Nc3ccccc3)nc1-2 | 152
16 | CCc1cccc(CC)c1NC(=O)c1nn(C)c2c1CCc1cnc(Nc3ccccc3OC)nc1-2 | 3170
17 | Cn1nc(C(N)=O)c2c1-c1nc(Nc3ccccc3OC(F)(F)F)ncc1CC2 | > 10000

The next lines start with the values.

Row | IC50 [nM] | Compound
18 | 1450 | CCc1cccc(CC)c1NC(=O)c1nn(C)c2c1CCc1cnc(Nc3ccc(C(=O)NC4CCN(C)CC4)cc3OC)nc1-2
19 | 768 | CCc1cccc(CC)c1NC(=O)c1nn(C)c2c1CCc1cnc(Nc3ccc(C(N)=O)cc3OC)nc1-2
20 | 750 | CCc1cccc(CC)c1NC(=O)c1nn(C)c2c1CCc1cnc(Nc3ccc(C(=O)NCCN(C)C)cc3OC)nc1-2
21 | 372 | CCc1cccc(CC)c1NC(=O)c1nn(C)c2c1CCc1cnc(Nc3ccc(C(=O)N4CCCN(C)CC4)cc3OC)nc1-2

Target: Cyclin-dependent kinase 2/cyclin A (Homo sapiens, UniProt P24941)
Test: Inhibition of CDK2/Cyclin A assessed as [33P]-gamma-ATP incorporation into substrate by gamma counting
Type: protein-complex assay
Settings: not given

Row | Compound | IC50 [nM]
22 | Cn1nc(C(=O)NCCc2ccccc2)c2c1-c1nc(Nc3ccccc3)ncc1CC2 | 697
23 | CCc1cccc(CC)c1NC(=O)c1nn(C)c2c1CCc1cnc(Nc3ccc(C(=O)N4CCC[C@@H]4CN4CCCC4)cc3OC(F)(F)F)nc1-2 | > 10000
24 | CCc1cccc(CC)c1NC(=O)c1nn(C)c2c1CCc1cnc(Nc3ccc(C(N)=O)cc3OC(F)(F)F)nc1-2 | > 10000
25 | CCc1cccc(CC)c1NC(=O)c1nn(C)c2c1CCc1cnc(Nc3ccccc3)nc1-2 | > 10000
26 | CCc1cccc(CC)c1NC(=O)c1nn(C)c2c1CCc1cnc(Nc3ccccc3OC)nc1-2 | > 10000
27 | Cn1nc(C(N)=O)c2c1-c1nc(Nc3ccccc3OC(F)(F)F)ncc1CC2 | > 10000

The next lines start with the values.

Row | IC50 [nM] | Compound
28 | > 10000 | CCc1cccc(CC)c1NC(=O)c1nn(C)c2c1CCc1cnc(Nc3ccc(C(=O)NC4CCN(C)CC4)cc3OC)nc1-2
29 | 5570 | CCc1cccc(CC)c1NC(=O)c1nn(C)c2c1CCc1cnc(Nc3ccc(C(N)=O)cc3OC)nc1-2
30 | > 10000 | CCc1cccc(CC)c1NC(=O)c1nn(C)c2c1CCc1cnc(Nc3ccc(C(=O)NCCN(C)C)cc3OC)nc1-2
31 | 3620 | CCc1cccc(CC)c1NC(=O)c1nn(C)c2c1CCc1cnc(Nc3ccc(C(=O)N4CCCN(C)CC4)cc3OC)nc1-2

Target: Serine/threonine-protein kinase PLK1 (Homo sapiens, UniProt P53350)
Test: Inhibition of PLK1 assessed as [33P]-gamma-ATP incorporation into substrate by gamma counting
Settings: not given

Serine/threonine-protein kinase PLK1, sequence (P53350 whole entry): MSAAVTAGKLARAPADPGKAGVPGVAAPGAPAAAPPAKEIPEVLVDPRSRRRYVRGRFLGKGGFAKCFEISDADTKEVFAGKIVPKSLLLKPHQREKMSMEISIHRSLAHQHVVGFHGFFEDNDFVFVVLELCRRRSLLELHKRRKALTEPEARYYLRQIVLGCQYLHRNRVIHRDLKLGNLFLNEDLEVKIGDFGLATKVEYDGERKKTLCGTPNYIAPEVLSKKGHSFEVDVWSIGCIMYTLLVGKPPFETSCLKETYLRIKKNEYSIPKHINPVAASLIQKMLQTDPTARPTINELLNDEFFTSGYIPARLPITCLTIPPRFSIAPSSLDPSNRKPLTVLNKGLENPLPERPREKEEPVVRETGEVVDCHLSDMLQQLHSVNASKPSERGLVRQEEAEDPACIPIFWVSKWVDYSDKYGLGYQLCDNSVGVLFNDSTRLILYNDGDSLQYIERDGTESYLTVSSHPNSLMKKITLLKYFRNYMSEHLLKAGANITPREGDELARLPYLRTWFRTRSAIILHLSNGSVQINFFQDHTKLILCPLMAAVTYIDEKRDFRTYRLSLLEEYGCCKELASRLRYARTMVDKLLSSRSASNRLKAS

Row | Compound | IC50 [nM]
32 | Cn1nc(C(=O)NCCc2ccccc2)c2c1-c1nc(Nc3ccccc3)ncc1CC2 | > 10000
33 | CCc1cccc(CC)c1NC(=O)c1nn(C)c2c1CCc1cnc(Nc3ccc(C(=O)N4CCC[C@@H]4CN4CCCC4)cc3OC(F)(F)F)nc1-2 | > 10000
34 | Cn1nc(C(=O)NCc2ccccc2)c2c1-c1nc(Nc3ccccc3)ncc1CC2 | > 10000
35 | CCc1cccc(CC)c1NC(=O)c1nn(C)c2c1CCc1cnc(Nc3ccc(C(N)=O)cc3OC(F)(F)F)nc1-2 | > 10000
36 | CCc1cccc(CC)c1NC(=O)c1nn(C)c2c1CCc1cnc(Nc3ccccc3)nc1-2 | > 10000
37 | CCc1cccc(CC)c1NC(=O)c1nn(C)c2c1CCc1cnc(Nc3ccccc3OC)nc1-2 | > 10000

More lines, now with the values ahead:

Row | IC50 [nM] | Compound
38 | 237 | CCc1cccc(CC)c1NC(=O)c1nn(C)c2c1CCc1cnc(Nc3ccc(C(=O)NC4CCN(C)CC4)cc3OC)nc1-2
39 | 3030 | CCc1cccc(CC)c1NC(=O)c1nn(C)c2c1CCc1cnc(Nc3ccc(C(N)=O)cc3OC)nc1-2
40 | 1650 | CCc1cccc(CC)c1NC(=O)c1nn(C)c2c1CCc1cnc(Nc3ccc(C(=O)NCCN(C)C)cc3OC)nc1-2
41 | > 10000 | CCc1cccc(CC)c1NC(=O)c1nn(C)c2c1CCc1cnc(Nc3ccc(C(=O)N4CCCN(C)CC4)cc3OC)nc1-2

System: A2780
Test: Antiproliferative activity in human A2780 cells after 72 hrs by CellTiter-Glo assay
Type: functional, cell-based
Settings: A2780, 72 h

Row | Compound | IC50 [nM]
42 | CCc1cccc(CC)c1NC(=O)c1nn(C)c2c1CCc1cnc(Nc3ccc(C(=O)N4CCC[C@@H]4CN4CCCC4)cc3OC(F)(F)F)nc1-2 | 422
43 | CCc1cccc(CC)c1NC(=O)c1nn(C)c2c1CCc1cnc(Nc3ccc(C(N)=O)cc3OC(F)(F)F)nc1-2 | 298
44 | CCc1cccc(CC)c1NC(=O)c1nn(C)c2c1CCc1cnc(Nc3ccccc3OC)nc1-2 | 541

More lines, now with the values ahead:

Row | IC50 [nM] | Compound
45 | 150 | CCc1cccc(CC)c1NC(=O)c1nn(C)c2c1CCc1cnc(Nc3ccc(C(=O)NC4CCN(C)CC4)cc3OC)nc1-2
46 | 135 | CCc1cccc(CC)c1NC(=O)c1nn(C)c2c1CCc1cnc(Nc3ccc(C(N)=O)cc3OC)nc1-2
47 | 101 | CCc1cccc(CC)c1NC(=O)c1nn(C)c2c1CCc1cnc(Nc3ccc(C(=O)NCCN(C)C)cc3OC)nc1-2
48 | < 16 | CCc1cccc(CC)c1NC(=O)c1nn(C)c2c1CCc1cnc(Nc3ccc(C(=O)N4CCCN(C)CC4)cc3OC)nc1-2

System: not listed separately
Test: Solubility of the compound at pH 7
Type: physicochemical
Settings: buffer

Row | Compound | solubility [µM]
49 | CCc1cccc(CC)c1NC(=O)c1nn(C)c2c1CCc1cnc(Nc3ccc(C(=O)N4CCC[C@@H]4CN4CCCC4)cc3OC(F)(F)F)nc1-2 | 65 (≈ 46.6 µg/mL)
50 | CCc1cccc(CC)c1NC(=O)c1nn(C)c2c1CCc1cnc(Nc3ccc(C(N)=O)cc3OC(F)(F)F)nc1-2 | 1 (≈ 0.58 µg/mL)
51 | CCc1cccc(CC)c1NC(=O)c1nn(C)c2c1CCc1cnc(Nc3ccccc3OC)nc1-2 | < 1

Second part, the compound after the results:

Row | solubility [µM] | Compound
52 | 3 (≈ 1.87 µg/mL) | CCc1cccc(CC)c1NC(=O)c1nn(C)c2c1CCc1cnc(Nc3ccc(C(=O)NC4CCN(C)CC4)cc3OC)nc1-2
53 | < 1 | CCc1cccc(CC)c1NC(=O)c1nn(C)c2c1CCc1cnc(Nc3ccc(C(N)=O)cc3OC)nc1-2
54 | 44 (≈ 26.3 µg/mL) | CCc1cccc(CC)c1NC(=O)c1nn(C)c2c1CCc1cnc(Nc3ccc(C(=O)NCCN(C)C)cc3OC)nc1-2
55 | 59 (≈ 36.7 µg/mL) | CCc1cccc(CC)c1NC(=O)c1nn(C)c2c1CCc1cnc(Nc3ccc(C(=O)N4CCCN(C)CC4)cc3OC)nc1-2

System: U2OS
Test: Inhibition of mitosis in human U2OS cells assessed as histone H3 phosphorylation at Ser 10 residue after 2 hrs by immunoassay
Type: functional, cell-based
Settings: not given

Row | Compound | IC50 [nM]
56 | CCc1cccc(CC)c1NC(=O)c1nn(C)c2c1CCc1cnc(Nc3ccc(C(=O)N4CCC[C@@H]4CN4CCCC4)cc3OC(F)(F)F)nc1-2 | 210
57 | CCc1cccc(CC)c1NC(=O)c1nn(C)c2c1CCc1cnc(Nc3ccc(C(N)=O)cc3OC(F)(F)F)nc1-2 | 160

Second part, the compound after the results:

Row | IC50 [nM] | Compound
58 | 16 | CCc1cccc(CC)c1NC(=O)c1nn(C)c2c1CCc1cnc(Nc3ccc(C(=O)NC4CCN(C)CC4)cc3OC)nc1-2
59 | 4 | CCc1cccc(CC)c1NC(=O)c1nn(C)c2c1CCc1cnc(Nc3ccc(C(N)=O)cc3OC)nc1-2
60 | 12 | CCc1cccc(CC)c1NC(=O)c1nn(C)c2c1CCc1cnc(Nc3ccc(C(=O)NCCN(C)C)cc3OC)nc1-2
61 | 2 | CCc1cccc(CC)c1NC(=O)c1nn(C)c2c1CCc1cnc(Nc3ccc(C(=O)N4CCCN(C)CC4)cc3OC)nc1-2
